Experimental data as given in publication PMC6814738, “Bacterial MgrB peptide activates chemoreceptor Fpr3 in mouse accessory olfactory system and drives avoidance behaviour” (Nature Communications, 2019).
Where “and” joins values, the source holds several entries; their conditions need not be identical. Equal values may be shown once.

Columns and labels:
[1] = target: T1, mouse Fpr3 (Fpr-rs1) (Mus musculus, UniProt O08790); assay: Heterologous expression / high-throughput Ca2+ imaging agonist screen and sequence selectivity of Fpr3 (Fig. 1a, 2c-e, 2g, 2i); type: cell-based; conditions: mean of n = 3 experiments in triplicate (n = 5 for f-MKKFRW), Fpr3 + Gα16 HEK293T, Fluo-4/AM, FLIPR, buffer C1 pH 7.2, mock 0.059-0.060
T1 construct: expressed in transfected cells; host or cells: HEK293T (DSMZ # ACC-635), transient transfection with jetPEI
T1 sequence (O08790 1-351): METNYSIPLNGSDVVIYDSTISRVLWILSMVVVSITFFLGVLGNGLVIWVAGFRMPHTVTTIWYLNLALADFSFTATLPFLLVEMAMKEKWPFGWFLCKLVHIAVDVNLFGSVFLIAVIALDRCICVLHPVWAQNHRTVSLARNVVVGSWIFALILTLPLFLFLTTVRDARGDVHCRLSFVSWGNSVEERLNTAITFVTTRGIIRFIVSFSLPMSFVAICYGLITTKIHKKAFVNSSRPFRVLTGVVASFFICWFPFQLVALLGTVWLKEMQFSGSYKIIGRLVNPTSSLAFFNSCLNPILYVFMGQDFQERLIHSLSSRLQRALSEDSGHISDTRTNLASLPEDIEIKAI
Experimental: An Fpr3 gene subcloned from genomic DNA of C57BL/6J mice into pcDNA3.1 (Invitrogen) was used in heterologous experiments[21],[80]. HEK293T (DSMZ # ACC-635) cells were seeded at 20–30% confluence on poly-D-lysine-coated (10 µg/ml in PBS) black 96-well µCLEAR-Plates (Greiner Bio-One). Cells were transfected 24 h later using jetPEI™ (Polyplus-transfection SA) according to the manufacturer’s protocol for 96-well transfections. For Ca^2+ imaging experiments, 0.125 µg of DNA plasmid encoding Fpr3 were cotransfected with equal amounts of a plasmid encoding Gα16, a promiscuous G protein α-subunit. Ca^2+ signals to agonist stimulation were recorded 48 h post transfection using the Ca^2+ indicator dye Fluo-4/AM (Molecular Probes) and a fluorescence imaging plate reader (FLIPR) system (Molecular Devices). Cotransfection of a plasmid encoding Gα16 with an empty vector used to subclone Fpr3 gave no agonist-evoked Ca^2+ responses.
We used custom-made peptides with a length of 6–21 amino acids to screen for agonists. Sequences of fMet peptides were designed according to motifs present at the N-termini of 15,125 specific bacterial proteins as annotated in UniProt. Peptides were chemically synthesised, purified, and verified by mass spectroscopy (MALDI-TOF) by commercial suppliers. Purity of all peptides was >95%. Source, sequence and purity of each peptide are listed in Supplementary Data 1. Lyophilised peptides were routinely dissolved in the Ca^2+ imaging assay buffer C1 (130 mM NaCl, 10 mM HEPES, 5 mM KCl, 2 mM CaCl2, 5 mM glucose, pH 7.2) as 0.2–1 mM stock solutions and kept in small aliquots at −20 °C until use. […] The sequences of these peptides exist in proteins from the following bacterial strains[21]: Psychromonas ingrahamii that belongs to a marine ice water microbial community, Desulfotomaculum reducens that is found in deep freshwater lakes, and Pseudomonas grimontii, a plant pathogen. As mice are unlikely to encounter these strains in their natural habitat, these findings are probably not of biological relevance.

[2] = system: male mice; assay: Behavioural avoidance test, FEU vs. FEU supplemented with peptide (Fig. 8, Supplementary Fig. 4); type: in vivo, mouse; conditions: Fig. 8c, B6 mice
Experimental: These assays were adapted from behavioural procedures described previously[14],[60]. We tested avoidance by giving adult male mice (8–14 week old) of various genotypes a choice to freely investigate two types of chemical stimuli: FEU vs. FEU supplemented with a peptide. Mice were sexually naïve and not exposed to the test stimuli prior to the testing day. Mice were habituated for three days (40 min each day) to clean filter papers (2.5 cm diameter), each deposited in a sterile plastic culture dish and placed in opposite corners of the test cage (30 × 12 cm). After the third habituation period, the test subject was transferred into a new cage containing fresh filter papers/dishes with either of the two test stimuli. One filter paper was impregnated with 45 µl of fresh urine pooled from two sexually naïve female B6 mice (8–16 weeks old) in oestrus (FEU, female oestrous urine) and 5 µl physiological solution containing (in mM): NaCl, 130; KCl, 5; Na-Hepes, 10; CaCl2, 2; glucose, 10; pH = 7.4. For testing the effects of specific peptides, the second filter paper was impregnated with FEU supplemented with a given peptide (100 or 50 µM final concentration, dissolved in physiological solution). Direct physical contact was allowed. Behaviour was recorded for 10 min from the top of the cage. Mice were exposed only once to a given peptide solution, and were exposed to only one peptide stimulus per day. Stimuli were presented in randomised order. […] This investigative behaviour was quantified as the time spent in close contact with each filter paper, scored manually by an observer blind to the experimental conditions using Behavioural Observation Research Interactive Software (BORIS)[85]. Contact time was measured as the time during which the nose crossed the border of a petri dish containing impregnated filter paper. An avoidance index was calculated as (TP — aTU)/(aTP + aTU), with TP as the time an individual mouse investigated a FEU-peptide mixture, aTP as the average time of all tested mice investigating this stimulus and aTU as the average time of all mice investigating FEU without added peptide. Negative values represent avoidance and positive values represent attraction. For analysing investigation of sick conspecifics, B6 mice were injected either with LPS or PBS as described above. In total, 4 h post injection, these mice were anaesthetised with 165 mg/kg ketamine (Pharmacia GmbH, Berlin, Germany) and 11 mg/kg xylazine (Bayer Health Care, Leverkusen, Germany) and then used in behavioural tests.

Substance | Ca2+ response, mean ([1]; 3 µM) | Ca2+ response, mean ([1]; 30 µM) | Preference Index ([2]; individual values) | Preference Index ([2]; mean, n = 11 f-MKKFRW, 11 MKKFRW, 10 f-MGFFIS, 10 f-MEQQNK, FEU control -0.002)
f-MNPITL [synthesized fMet peptide] | 0.053 ∆F/F | 0.062 ∆F/F |  | 
f-MVPISI [synthesized fMet peptide] | 0.048 ∆F/F | 0.044 ∆F/F |  | 
f-MKKISKFLP [synthesized fMet peptide] | 0.055 ∆F/F | 0.072 ∆F/F |  | 
f-MAQDIISTI [synthesized fMet peptide] | 0.079 ∆F/F | 0.075 ∆F/F |  | 
f-MKKLLNKIV [synthesized fMet peptide] | 0.056 ∆F/F | 0.054 ∆F/F |  | 
f-MKKFLL [synthesized fMet peptide] | 0.052 ∆F/F | 0.050 ∆F/F |  | 
f-MTHQTH [synthesized fMet peptide] | 0.064 ∆F/F | 0.077 ∆F/F |  | 
f-MLFKYS [synthesized fMet peptide] | 0.054 ∆F/F | 0.048 ∆F/F |  | 
f-MAMKKL [synthesized fMet peptide] | 0.058 ∆F/F | 0.059 ∆F/F |  | 
f-MLFKYL [synthesized fMet peptide] | 0.053 ∆F/F | 0.056 ∆F/F |  | 
f-MKKWRW [synthesized fMet peptide] | 0.056 ∆F/F | 0.063 ∆F/F |  | 
f-MFIYYCK [synthesized fMet peptide] | 0.053 ∆F/F | 0.042 ∆F/F |  | 
f-MPQLDT [synthesized fMet peptide] | 0.060 ∆F/F | 0.058 ∆F/F |  | 
f-MAYPFQ [synthesized fMet peptide] | 0.059 ∆F/F | 0.061 ∆F/F |  | 
f-MINKKI [synthesized fMet peptide] | 0.058 ∆F/F | 0.045 ∆F/F |  | 
f-MEFVAKLFK [synthesized fMet peptide] | 0.071 ∆F/F | 0.062 ∆F/F |  | 
f-MKKTLSLKN [synthesized fMet peptide] | 0.068 ∆F/F | 0.058 ∆F/F |  | 
f-MKFCTA [synthesized fMet peptide] | 0.034 ∆F/F | 0.080 ∆F/F |  | 
f-MLKIIL [synthesized fMet peptide] | 0.057 ∆F/F | 0.057 ∆F/F |  | 
f-MTNMRK [synthesized fMet peptide] | 0.089 ∆F/F | 0.060 ∆F/F |  | 

Substance | Ca2+ response, mean ([1]; 3 µM) | Ca2+ response, mean ([1]; 30 µM) | Preference Index ([2]; individual values) | Preference Index ([2]; mean, n = 11 f-MKKFRW, 11 MKKFRW, 10 f-MGFFIS, 10 f-MEQQNK, FEU control -0.002)
f-MEQQNK [synthesized fMet peptide] | 0.047 ∆F/F | 0.050 ∆F/F | -0.06064 and -0.05774 and -0.1328 and -0.09632 and 0.7296 and -0.0445 and 0.1064 and -0.1977 and 0.2779 and -0.1553 | 0.0369
f-MKKNLV [synthesized fMet peptide] | 0.052 ∆F/F | 0.053 ∆F/F |  | 
f-MTNKIS [synthesized fMet peptide] | 0.052 ∆F/F | 0.049 ∆F/F |  | 
f-MNKKLL [f-MNKLL, synthesized fMet peptide] | 0.038 ∆F/F | 0.039 ∆F/F |  | 
f-MPSTFF [synthesized fMet peptide] | 0.063 ∆F/F | 0.065 ∆F/F |  | 
f-MKKFYS [synthesized fMet peptide] | 0.058 ∆F/F | 0.056 ∆F/F |  | 
f-MVMKFK [synthesized fMet peptide] | 0.053 ∆F/F | 0.050 ∆F/F |  | 
f-MVKIIF [synthesized fMet peptide] | 0.045 ∆F/F | 0.054 ∆F/F |  | 
f-MMKMEG [synthesized fMet peptide] | 0.048 ∆F/F | 0.040 ∆F/F |  | 
f-MEFVAK [synthesized fMet peptide] | 0.051 ∆F/F | 0.076 ∆F/F |  | 
f-MKTSIR [synthesized fMet peptide] | 0.055 ∆F/F | 0.049 ∆F/F |  | 
f-MLNKKKRGN [synthesized fMet peptide] | 0.056 ∆F/F | 0.058 ∆F/F |  | 
f-MKKHRW [synthesized fMet peptide] | 0.061 ∆F/F | 0.054 ∆F/F |  | 
f-MNIFTT [synthesized fMet peptide] | 0.059 ∆F/F | 0.065 ∆F/F |  | 
f-MKKIML [synthesized fMet peptide] | 0.050 ∆F/F | 0.055 ∆F/F |  | 
f-MPKLNR [synthesized fMet peptide] | 0.048 ∆F/F | 0.033 ∆F/F |  | 
f-MKKYKRLLL [synthesized fMet peptide] | 0.074 ∆F/F | 0.065 ∆F/F |  | 
f-MKNFKG [synthesized fMet peptide, bacterial signal peptide fragment] | 0.065 ∆F/F | 0.052 ∆F/F |  | 
f-MKKFNI [synthesized fMet peptide] | 0.053 ∆F/F | 0.044 ∆F/F |  | 
